Results: the supplement of paper PMC10307832

compound: CC1(COc2ccc3c(c2)ncn3-c2ccc3cccc(N4CCC(N)CC4)c3n2)COC1 [Crenolanib] + C[C@]1(O)C[C@@H](c2nc(-c3ccc4ccc(-c5ccccc5)nc4c3)c3c(N)nccn32)C1 [Linsitinib] (partner 1 µM); assay: relative viability (nuclei count vs DMSO), 5 days (fraction); higher = more cells survive; conditions: first compound 0.01 µM
Method in brief: (§1)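 Values are medians from duplicate plates. Each reflects relative viability, defined as the nuclei count of treated wells over that of vehicle wells. Lung cancer cell lines in 1536-well plates were pin-tool dosed one day after seeding with one drug alone or with a fixed anchor-drug dose plus five library-drug doses (not always all listed) in √10 steps, then fixed, stained and imaged at 4× after 5 days.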

Cell Line	relative viability
NCI-H1993	0.771
SK-LU-1	1.09
ABC-1	0.79
NCI-H358	0.819
NCI-H661	0.628
RERF-LC-KJ	0.851

same assay, conditions: first compound 0.03162 µM

Cell Line	relative viability
NCI-H2085	0.896
HCC-366	0.738
PC-3 [JPC-3]	0.956
EKVX	1.1
NCI-H1944	1.15
NCI-H1993	0.757
SK-LU-1	0.649
ABC-1	0.797
NCI-H358	0.682
NCI-H661	0.527
RERF-LC-KJ	0.937

same assay, conditions: first compound 0.1 µM

Cell Line	relative viability
NCI-H2085	0.913
HCC-366	0.574
PC-3 [JPC-3]	0.899
EKVX	0.954
NCI-H1944	1.21
NCI-H1993	0.724
SK-LU-1	0.869
ABC-1	0.946
NCI-H358	0.566
NCI-H661	0.499
RERF-LC-KJ	0.905

same assay, conditions: first compound 0.3162 µM

Cell Line	relative viability
NCI-H2085	0.932
HCC-366	0.819
PC-3 [JPC-3]	0.988
EKVX	1.12
NCI-H1944	1.32
NCI-H1993	0.649
SK-LU-1	1.16
ABC-1	1.19
NCI-H358	0.727
NCI-H661	0.544
RERF-LC-KJ	0.919

same assay, conditions: first compound 1 µM

Cell Line	relative viability
NCI-H2085	0.873
HCC-366	0.69
PC-3 [JPC-3]	0.887
EKVX	1.01
NCI-H1944	1.17
NCI-H1993	0.705
SK-LU-1	0.809
ABC-1	1.04
NCI-H358	0.58
NCI-H661	0.497
RERF-LC-KJ	0.944

compound: CC1(COc2ccc3c(c2)ncn3-c2ccc3cccc(N4CCC(N)CC4)c3n2)COC1 [Crenolanib] + C[C@@H](Oc1cc(-c2cnn(C3CCNCC3)c2)cnc1N)c1c(Cl)ccc(F)c1Cl [Crizotinib] (partner 1 µM); assay: as above; conditions: first compound 0.01 µM
Method in brief: as §1

Cell Line	relative viability
NCI-H2085	0.942
HCC-366	0.487
PC-3 [JPC-3]	0.975
EKVX	1.06
NCI-H1944	1.05
NCI-H1993	0.875
SK-LU-1	1
ABC-1	1.01
NCI-H358	0.701
NCI-H661	1.04
RERF-LC-KJ	0.796

same assay, conditions: first compound 0.03162 µM

Cell Line	relative viability
NCI-H2085	0.993
HCC-366	0.466
PC-3 [JPC-3]	0.958
EKVX	0.756
NCI-H1944	1.19
NCI-H1993	0.871
SK-LU-1	0.968
ABC-1	0.883
NCI-H358	0.584
NCI-H661	1.08
RERF-LC-KJ	0.848

same assay, conditions: first compound 0.1 µM

Cell Line	relative viability
NCI-H2085	0.902
HCC-366	0.481
PC-3 [JPC-3]	0.907
EKVX	0.899
NCI-H1944	1.03
NCI-H1993	0.875
SK-LU-1	0.644
ABC-1	1.13
NCI-H358	0.592
RERF-LC-KJ	0.825

same assay, conditions: first compound 0.3162 µM

Cell Line	relative viability
NCI-H2085	0.804
HCC-366	1.04
PC-3 [JPC-3]	1.05
EKVX	1.06
NCI-H1944	1.21
NCI-H1993	0.806
SK-LU-1	0.876
ABC-1	1.01
NCI-H358	0.454
NCI-H661	1.05
RERF-LC-KJ	0.852

same assay, conditions: first compound 1 µM

Cell Line	relative viability
NCI-H2085	0.845
HCC-366	0.462
PC-3 [JPC-3]	0.991
EKVX	1
NCI-H1944	1.07
NCI-H1993	0.9
SK-LU-1	0.85
ABC-1	1.19
NCI-H358	0.661
NCI-H661	1.15
RERF-LC-KJ	0.886
